Data reported in US12187742B2 (XRAD Therapeutics, Inc., priority 2018, dated 2025).
Structures can show the parent of a compound that is named as a salt.

Columns and labels:
[1] = target: ATM (Homo sapiens (Human), UniProt Q13315); assay: ATM in Cell Western Assay (pKAP1 in etoposide-treated MCF-7 cells); type: cell-based
How it was run: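 Cells received compounds in a 10-dose, 3-fold series from a 1 μM final top concentration, then 100 μM etoposide, for 1 hr at 37° C. They were then fixed with paraformaldehyde and permeabilized with 0.1% Triton X-100. After immunostaining, plates were scanned on an infrared imager.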

[2] = target: DNA-PK (Homo sapiens (Human), UniProt P78527); assay: DNA-PK Enzyme-Linked Immunosorbent Assay (phosphorylation of GST-p53 (1-101) peptide); type: biochemical; conditions: ELISA
How it was run: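 ELISA with plate-bound GST-p53 (1-101) phosphorylated by DNA-PK (0.1 μg/mL final) with 20 μM ATP for 1 h at 25 °C. Compounds tested over 10 3-fold doses from 100 nM top final. Phospho-p53 Ser15 detected by antibody, HRP and TMB, absorbance at 450 nm.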

[3] = MCF-7 cells, etoposide 100 μM, 1 hr, pKAP1 readout
[4] = pKAP1 in etoposide-treated MCF-7 cells

ATM, sequence (Q13315 whole entry): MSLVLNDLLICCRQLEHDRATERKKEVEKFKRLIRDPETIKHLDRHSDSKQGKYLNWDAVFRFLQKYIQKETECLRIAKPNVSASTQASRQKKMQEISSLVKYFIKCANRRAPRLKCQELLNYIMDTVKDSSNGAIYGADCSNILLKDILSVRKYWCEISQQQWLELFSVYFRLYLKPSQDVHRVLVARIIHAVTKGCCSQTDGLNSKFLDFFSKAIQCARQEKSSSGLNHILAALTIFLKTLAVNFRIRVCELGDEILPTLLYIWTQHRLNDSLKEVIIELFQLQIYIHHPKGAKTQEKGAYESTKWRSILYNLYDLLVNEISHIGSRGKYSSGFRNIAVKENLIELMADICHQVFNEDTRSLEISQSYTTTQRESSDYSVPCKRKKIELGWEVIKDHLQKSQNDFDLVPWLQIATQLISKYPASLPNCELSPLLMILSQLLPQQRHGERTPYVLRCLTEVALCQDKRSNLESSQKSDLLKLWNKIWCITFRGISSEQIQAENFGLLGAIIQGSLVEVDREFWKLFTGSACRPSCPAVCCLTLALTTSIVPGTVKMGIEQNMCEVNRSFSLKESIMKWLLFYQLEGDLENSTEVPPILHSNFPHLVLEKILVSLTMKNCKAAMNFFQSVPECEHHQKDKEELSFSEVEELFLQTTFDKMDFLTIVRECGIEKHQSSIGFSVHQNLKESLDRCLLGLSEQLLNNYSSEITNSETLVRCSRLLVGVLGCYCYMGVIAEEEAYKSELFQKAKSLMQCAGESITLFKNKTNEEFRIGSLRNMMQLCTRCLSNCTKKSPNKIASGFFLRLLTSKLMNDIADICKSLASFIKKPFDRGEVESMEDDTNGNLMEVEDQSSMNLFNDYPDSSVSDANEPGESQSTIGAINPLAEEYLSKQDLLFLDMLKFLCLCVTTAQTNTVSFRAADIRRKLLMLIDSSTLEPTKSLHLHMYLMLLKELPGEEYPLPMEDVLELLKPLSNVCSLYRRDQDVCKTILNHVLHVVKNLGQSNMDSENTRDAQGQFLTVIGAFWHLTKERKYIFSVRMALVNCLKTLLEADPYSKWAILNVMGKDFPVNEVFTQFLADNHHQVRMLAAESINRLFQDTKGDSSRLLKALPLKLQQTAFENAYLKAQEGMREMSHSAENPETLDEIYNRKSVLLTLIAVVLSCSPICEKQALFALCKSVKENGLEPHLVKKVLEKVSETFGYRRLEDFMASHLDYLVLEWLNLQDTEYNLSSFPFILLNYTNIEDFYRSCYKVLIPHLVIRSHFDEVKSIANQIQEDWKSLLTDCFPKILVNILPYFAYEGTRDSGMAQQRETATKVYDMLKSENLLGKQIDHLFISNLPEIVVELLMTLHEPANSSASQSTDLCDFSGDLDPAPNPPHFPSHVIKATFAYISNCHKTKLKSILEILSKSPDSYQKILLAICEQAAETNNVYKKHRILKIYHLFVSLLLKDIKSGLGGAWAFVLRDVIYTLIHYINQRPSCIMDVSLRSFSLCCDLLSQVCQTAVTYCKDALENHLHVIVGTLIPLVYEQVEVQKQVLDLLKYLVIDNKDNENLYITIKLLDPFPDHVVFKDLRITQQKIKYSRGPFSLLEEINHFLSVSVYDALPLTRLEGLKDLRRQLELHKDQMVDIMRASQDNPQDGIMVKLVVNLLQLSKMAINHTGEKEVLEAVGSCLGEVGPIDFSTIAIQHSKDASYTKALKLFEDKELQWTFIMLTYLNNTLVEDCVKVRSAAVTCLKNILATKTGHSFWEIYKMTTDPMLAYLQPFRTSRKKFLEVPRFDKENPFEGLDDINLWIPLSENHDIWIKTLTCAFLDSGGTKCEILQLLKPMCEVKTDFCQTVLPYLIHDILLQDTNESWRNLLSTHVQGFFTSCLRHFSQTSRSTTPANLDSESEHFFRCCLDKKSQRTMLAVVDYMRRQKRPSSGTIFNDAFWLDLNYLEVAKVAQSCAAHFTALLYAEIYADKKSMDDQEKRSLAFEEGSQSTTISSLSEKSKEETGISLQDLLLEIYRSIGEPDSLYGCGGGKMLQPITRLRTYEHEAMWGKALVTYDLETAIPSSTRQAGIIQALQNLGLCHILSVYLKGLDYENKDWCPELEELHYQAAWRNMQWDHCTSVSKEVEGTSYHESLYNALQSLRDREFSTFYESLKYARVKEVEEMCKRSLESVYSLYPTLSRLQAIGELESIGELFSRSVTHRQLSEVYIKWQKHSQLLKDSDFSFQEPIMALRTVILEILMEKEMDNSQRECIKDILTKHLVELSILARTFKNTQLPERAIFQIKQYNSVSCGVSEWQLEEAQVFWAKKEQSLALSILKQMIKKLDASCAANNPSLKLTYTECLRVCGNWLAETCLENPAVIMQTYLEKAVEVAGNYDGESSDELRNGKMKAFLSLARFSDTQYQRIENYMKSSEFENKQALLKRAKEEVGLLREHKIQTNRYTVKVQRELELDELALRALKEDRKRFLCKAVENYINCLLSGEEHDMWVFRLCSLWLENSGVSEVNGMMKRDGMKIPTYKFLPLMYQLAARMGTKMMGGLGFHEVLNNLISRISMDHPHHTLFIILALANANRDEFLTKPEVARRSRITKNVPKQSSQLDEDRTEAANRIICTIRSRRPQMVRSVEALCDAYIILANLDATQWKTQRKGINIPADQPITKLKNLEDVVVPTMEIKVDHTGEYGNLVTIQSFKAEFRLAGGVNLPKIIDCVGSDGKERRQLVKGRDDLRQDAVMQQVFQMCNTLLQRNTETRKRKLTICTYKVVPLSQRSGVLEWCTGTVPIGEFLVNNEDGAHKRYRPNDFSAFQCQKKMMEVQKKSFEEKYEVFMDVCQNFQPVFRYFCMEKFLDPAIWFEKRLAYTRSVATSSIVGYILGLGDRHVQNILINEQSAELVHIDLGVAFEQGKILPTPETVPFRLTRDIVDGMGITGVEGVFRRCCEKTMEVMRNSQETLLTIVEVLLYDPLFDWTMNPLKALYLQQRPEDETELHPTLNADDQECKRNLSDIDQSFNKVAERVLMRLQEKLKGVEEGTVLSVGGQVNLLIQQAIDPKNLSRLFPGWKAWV

| SMILES | IC50 [1, 3] [nM] | IC50 ([2]; ATP 20 μM) [nM] | IC50 [1, 4] [nM] | IC50 ([2]; 20 μM ATP) [nM] |
| --- | --- | --- | --- | --- |
| Cc1ccc(S(=O)(=O)Nc2cc(-c3ccc4ncc5c(c4c3)C3(CCC3)C(=O)N5C)cnc2N2CCN(C)CC2)cn1 [Example 201, 6-Methyl-N-(5-(3′-methyl-2′-oxo-2′,3′-dihydrospiro[cyclobutane-1,1′-pyrrolo[2,3-c]quinolin]-8′-yl)-2-(4-methylpiperazin-1-yl)pyridin-3-yl)pyridine-3-sulfonamide] | 1 to 100 | < 0.5 |  |  |
| CN1C(=O)C2(CC2)c2c1cnc1ccc(-c3cnc(N4CCC(N(C)C)CC4)c(NS(=O)(=O)C4CC4)c3)cc21 [Example 113, N-(2-(4-(Dimethylamino)piperidin-1-yl)-5-(3′-methyl-2′-oxo-2′,3′-dihydrospiro[cyclopropane-1,1′-pyrrolo[2,3-c]quinolin]-8′-yl)pyridin-3-yl)cyclopropanesulfonamide] | < 0.5 | < 0.5 |  |  |
| CC(C)NCCOc1ncc(-c2cc3c(cc2F)ncc2c3[C@]3(C[C@H](Nc4ccc(Cl)cc4)C3)C(=O)N2C)cc1NS(C)(=O)=O [Example 461, cis-N-(5-(3-((4-Chlorophenyl)amino)-7′-fluoro-3′-methyl-2′-oxo-2′,3′-dihydrospiro[cyclobutane-1,1′-pyrrolo[2,3-c]quinolin]-8′-yl)-2-(2-(isopropylamino)ethoxy)pyridin-3-yl)methanesulfonamide] |  |  | 1 to 100 | 1 to 100 |
| CN1C(=O)C2(CCC2)c2c1cnc1ccc(-c3cnc(OCCCN4CCC(F)C4)c(NS(C)(=O)=O)c3)cc21 (centres unmarked) [Example 279, N-(2-(3-(3-Fluoropyrrolidin-1-yl)propoxy)-5-(3′-methyl-2′-oxo-2′,3′-dihydrospiro[cyclobutane-1,1′-pyrrolo[2,3-c]quinolin]-8′-yl)pyridin-3-yl)methanesulfonamide] | 1 to 100 | 0.5 to 1 |  |  |
| CN1C(=O)C2(CCC2)c2c1cnc1ccc(-c3cnc(N4CC(N5CCCC5)C4)c(NS(C)(=O)=O)c3)cc21 [Example 277, N-(5-(3′-Methyl-2′-oxo-2′,3′-dihydrospiro[cyclobutane-1,1′-pyrrolo[2,3-c]quinolin]-8′-yl)-2-(3-(pyrrolidin-1-yl)azetidin-1-yl)pyridin-3-yl)methanesulfonamide] | 1 to 100 | 1 to 100 |  |  |
| CN1C(=O)C2(CC2)c2c1cnc1ccc(-c3cnc(OCCC4CCCN4C)c(NS(=O)(=O)c4ccccc4)c3)cc21 (centres unmarked) [Example 78, N-(5-(3′-Methyl-2′-oxo-2′,3′-dihydrospiro[cyclopropane-1,1′-pyrrolo[2,3-c]quinolin]-8′-yl)-2-(2-(1-methylpyrrolidin-2-yl)ethoxy)pyridin-3-yl)benzenesulfonamide] | 1 to 100 | 1 to 100 |  |  |
| COc1ncc(-c2ccc3ncc4c(c3c2)C2(CC2)C(=O)N4C)cc1NS(=O)(=O)c1ccc([N+](=O)[O-])cc1 [Example 12, N-(2-Methoxy-5-(3′-methyl-2′-oxo-2′,3′-dihydrospiro [cyclopropane-1,1′-pyrrolo[2,3-c]quinolin]-8′-yl)pyridin-3-yl)-4-nitrobenzenesulfonamide] | 1 to 100 | < 0.5 |  |  |
| CN1C(=O)C2(CCC2)c2c1cnc1ccc(-c3cnc(N4CCC(N5CCCC(F)(F)C5)CC4)c(NS(C)(=O)=O)c3)cc21 [Example 251, N-(2-(3,3-Difluoro-[1,4′-bipiperidin]-1′-yl)-5-(3′-methyl-2′-oxo-2′,3′-dihydrospiro[cyclobutane-1,1′-pyrrolo[2,3-c]quinolin]-8′-yl)pyridin-3-yl)methanesulfonamide] | 1 to 100 | 0.5 to 1 |  |  |
| CC(C)NCCOc1ncc(-c2cc3c4c(cnc3cc2F)N(C)C(=O)C42CCC2)cc1NS(=O)(=O)N1CCC1 [Example 370, N-(5-(7′-Fluoro-3′-methyl-2′-oxo-2′,3′-dihydrospiro [cyclobutane-1,1′-pyrrolo[2,3-c]quinolin]-8′-yl)-2-(2-(isopropylamino)ethoxy)pyridin-3-yl)azetidine-1-sulfonamide] |  |  | 1 to 100 | 1 to 100 |
| CN(C)CCCOc1ncc(-c2ccc3ncc4c(c3c2)C2(CC2)C(=O)N4C)cc1NS(=O)(=O)c1ccn(C)n1 [Example 112, N-(2-(3-(Dimethylamino)propoxy)-5-(3′-methyl-2′-oxo-2′,3′-dihydrospiro[cyclopropane-1,1′-pyrrolo[2,3-c]quinolin]-8′-yl)pyridin-3-yl)-1-methyl-1H-pyrazole-3-sulfonamide] | 1 to 100 | < 0.5 |  |  |
| COc1ccccc1N1CC2(C1)C(=O)N(C)c1cnc3cc(F)c(-c4cnc(OCCNC(C)C)c(NS(C)(=O)=O)c4)cc3c12 [Example 535, N-(5-(7′-Fluoro-1-(2-methoxyphenyl)-3′-methyl-2′-oxo-2′,3′-dihydrospiro [azetidine-3,1′-pyrrolo[2,3-c]quinolin]-8′-yl)-2-(2-(isopropylamino)ethoxy)pyridin-3-yl)methanesulfonamide] |  |  | 1 to 100 | 1 to 100 |
| CNC1CN(c2ncc(-c3cc4c5c(cnc4cc3F)N(C)C(=O)C53CCC3)cc2NS(C)(=O)=O)C1 [Example 330, N-(5-(7′-Fluor-3′-methyl-2′-oxo-2′,3′-dihydrospiro [cyclobutane-1,1-pyrrolo[2,3-c]quinolin]-8′-yl)-2-(3-(methylamino)azetidin-1-yl)pyridin-3-yl) methanesulfonamide formate] | 1 to 100 | 0.5 to 1 |  |  |
| CC(C)NCCOc1ncc(-c2cc3c4c(cnc3cc2F)N(C)C(=O)C42CN(c3ccc(OC(F)(F)F)cc3)C2)cc1NS(C)(=O)=O [Example 541, N-(5-(7′-Fluoro-3′-methyl-2′-oxo-1-(4-(trifluoromethoxy)phenyl)-2′,3′-dihydrospiro[azetidine-3,1′-pyrrolo[2,3-c]quinolin]-8′-yl)-2-(2-(isopropylamino)ethoxy)pyridin-3-yl)methanesulfonamide] |  |  | 1 to 100 | 1 to 100 |
| CC(C)NCCOc1ncc(-c2ccc3ncc4c(c3c2)C2(CCCC2)C2=NCCN24)cc1NS(C)(=O)=O [Example 257, N-(5-(8′,9′-Dihydrospiro[cyclopentane-1,11′-imidazo[1′,2′:1,5]pyrrolo[2.3-c]quinolin]-2′-yl)-2-(2-(isopropylamino)ethoxy)pyridin-3-yl)methanesulfonamide] | 1 to 100 | < 0.5 |  |  |
| CCCS(=O)(=O)Nc1cc(-c2ccc3ncc4c(c3c2)C2(CC2)C(=O)N4C)cnc1OCCCN(C)C [Example 77, N-(2-(3-(Dimethylamino)propoxy)-5-(3′-methyl-2′-oxo-2′,3′-dihydrospiro [cyclopropane-1,1′-pyrrolo [2,3-c]quinolin]-8′-yl)pyridin-3-yl)propane-1-sulfonamide] | 1 to 100 | 1 to 100 |  |  |
| CN(C)CCCOc1ncc(-c2ccc3ncc4c(c3c2)C2(CCC2)C(=O)N4C)cc1NS(=O)(=O)c1cncs1 [Example 169, N-(2-(3-(Dimethylamino)propoxy)-5-(3′-methyl-2′-oxo-2′,3′-dihydrospiro [cyclobutane-1,1′-pyrrolo [2,3-c]quinolin]-8′-230 yl)pyridin-3-yl)thiazole-5-sulfonamide hydrochloride] | 1 to 100 | < 0.5 |  |  |
| CN(C)CCCOc1ncc(-c2cc3c4c(cnc3cc2F)N(C)C(=O)C42CC2)cc1NS(=O)(=O)c1ccc(Cl)cc1 [Example 129, 4-Chloro-N-(2-(3-(dimethylamino)propoxy)-5-(7′-fluoro-3′-methyl-2′-oxo-2′,3′-dihydrospiro[cyclopropane-1,1′-pyrrolo[2,3-c]quinolin]-8′-yl)pyridin-3-yl) benzenesulfonamide hydrochloride] | 1 to 100 | 1 to 100 |  |  |
| CN1C(=O)C2(CCC2)c2c1cnc1cc(F)c(-c3cnc(N4CC(N(C)C)C4)c(NS(=O)(=O)c4ccccc4)c3)cc21 [Example 324, N-(2-(3-(Dimethylamino)azetidin-1-yl)-5-(7′-fluoro-3′-methyl-2′-oxo-2′,3′-dihydrospiro[cyclobutane-1,1′-pyrrolo[2,3-c]quinolin]-8′-yl)pyridin-3-yl)benzenesulfonamide hydrochloride] | 1 to 100 | 1 to 100 |  |  |
| CC(C#N)c1cccc(S(=O)(=O)Nc2cc(-c3ccc4ncc5c(c4c3)C3(CC3)C(=O)N5C)cnc2OCCCN(C)C)c1 (centres unmarked) [Example 46, 3-(1-Cyanoethyl))-N-((2-(3-(Dimethylamino)propoxy)-5-(3′-methyl-2′-oxo-2′,3′-dihydrospiro [cyclopropane-1,1′-pyrrolo[2,3-c]quinolin]-8′-yl)pyridin-3-yl)benzenesulfonamide] | 1 to 100 | < 0.5 |  |  |
| Cc1ncc(S(=O)(=O)Nc2cc(-c3ccc4ncc5c(c4c3)C3(CCC3)C(=O)N5C)cnc2N2CC(N(C)C)C2)s1 [Example 338, N-(2-(3-(Dimethylamino)azetidin-1-yl)-5-(3′-methyl-2′-oxo-2′,3′-dihydrospiro[cyclobutane-1,1′-pyrrolo[2,3-c]quinolin]-8′-yl)pyridin-3-yl)-2-methylthiazole-5-sulfonamide] |  |  | 1 to 100 | 1 to 100 |
| CN(C)CCCOc1ncc(-c2ccc3ncc4c(c3c2)C2(CC2)C(=O)N4C)cc1NS(=O)(=O)N(C)C [Example 109] | 1 to 100 | < 0.5 |  |  |
| CN1CCN(c2ncc(-c3ccc4ncc5c(c4c3)C3(CCC3)C(=O)N5C)cc2NS(=O)(=O)N(C)C)CC1 [Example 230, 8′-{5-[(Dimethylsulfamoyl)amino]-6-(4-methylpiperazin-1-yl)pyridin-3-yl}-3′-methyl-2′,3′-dihydrospiro[cyclobutane-1,1′-pyrrolo[2,3-c]quinoline]-2′-one] | 1 to 100 | < 0.5 |  |  |
